Measurements reported in patent US6747021B2, “Cryptophycin compound” (Eli Lilly and Company, priority 2000, dated 2004).

Assays:
HUMAN COLON ADEN[…]-116 = experiment: Early stage human colon adenocarcinoma HCT-116 xenograft assay; type: in vivo; conditions: Balb/C SCID female mice
From the text: (§1) Inhibition of tumors transplanted into mice is an accepted procedure for studying the efficacy of antitumor agents (Corbett, et al., In vivo Methods for Screening and Preclinical Testing; Use of rodent solid tumors for drug discovery., In: Anticancer Drug Development Guide: Preclinical Screening, Clinical Trials, and Approval, B. Teicher (ed), Humana Press Inc., Totowa, N.J., Chapter 5, pages 75-99 (1997); (Corbett, et al., Int. J. Pharmacog., 33, Supplement, 102-122 (1995)). Murine tumors or human xenographs were implanted essentially as described by Corbett in In vivo Methods for Screening and Preclinical Testing; Use of rodent solid tumors for drug discovery. Briefly, the murine tumor or human xenograph was implanted subcutaneously using either 12-gauge trocar implants or counted number of cells. The location for the trocar insertion is midway between the axillary and inguinal region along the side of the mouse. The trocar is slipped approximately ¾ of an inch subcutaneously up toward the axilla before discharging the tumor fragment, and pinching the skin as the trocar is removed. Alternatively, human tumor cells prepared from a […] of donor tumors (5×10^6 cells) were implanted subcutaneously in a hind-leg of a male or female nude mouse (Charles River). Either a test compound in vehicle or vehicle alone was administered by intravenous bolus injection (iv), intraperitoneal injection (ip), or oral gavage (po). Each treatment group, as well as a group of untreated control animals, consisted of five animals per group in each experiment. Subcutaneous tumor response was monitored by tumor volume measurement performed twice each week over the course of the experiment (60-120 days). Body weights were taken as a general measure of toxicity. The subcutaneous tumor data were analyzed by determining the median tumor weight for each treatment group over the course of the experiment and calculating the tumor growth delay as the difference in days for the treatment versus the control tumors to reach a volume of either 500 or 1000 mm^3.
(§2) Cryptophycin-309 (309) was tested against a variety of murine and human tumors substantially as described supra. Cryptophycin-55 glycinate (55-GLY), Taxol, and Adriamycin (Adria) were also included in certain tests for purposes of comparison. Cryptophycin 55 glycinate is known in the art (WO 98/08505, Example 9) and has the following structure: [drawing 9]
(§3) Tumor Weight(mg)=(a×b^2)/2 where a=tumor length (mm) and b=tumor width (mm).
(§4) Tumor Growth Delay=T−C where T is the median time (days) required for the treatment group tumors to reach a predetermined size, and C is the median time (days) for the control group tumors to reach the same size. Tumor-free survivors are excluded from this calculation, and are tabulated separately (Tumor Free).
(§5) Log Kill=Tumor Growth Delay/(3.32)(Td)
(§6) where Tumor Growth Delay is as previously defined and Td is tumor volume doubling time (days), estimated from the best fit straight line from a log-linear growth plot of the control group of tumors in exponential growth (100-800 mg range)
(§7) %T/C mass—The treatment and control groups are measured when the control group tumors reach approximately 700 to 1200 mg in size (median group). The median tumor weight of each group is determined (including zeros). The T/C value in percent is an indication of antitumor effectiveness. A T/C≦42% is considered significant antitumor activity. A T/C<10% is considered to indicate highly significant antitumor activity.
(§8) Body Weight Loss Nadir—A body weight loss nadir (mean of group) of greater than 20% or drug deaths greater than 20% are considered to indicate an excessively toxic dosage in single course trials.
(§9) Activity Rating—the Activity Rating is derived from the Log Kill according to the following table: […]

[1] = Toxicity relative to other cryptophycins (general statement); conditions: compared with other cryptophycins; no test described
[2] = system: COLON ADENOCARCINOMA 51/A; experiment: Early stage murine colon adenocarcinoma 51/A subcutaneous tumor assay; type: in vivo; conditions: IV 28 mg/kg/inj days 3,5,7,9,11; total dose 140 mg/kg; CDF female mice
From the text: as §1, §2, §3, §4, §5, §6, §7, §8, §9

[3] = system: MAMMARY ADENOCARCINOMA-16/C/Adr; experiment: Early stage murine mammary adenocarcinoma-16/C/Adr subcutaneous tumor assay; type: in vivo; conditions: IV 20 mg/kg/inj days 1,3,5,7,9; total dose 100 mg/kg; C3H female mice
From the text: as §1, §2, §3, §4, §5, §6, §7, §8, §9

[4] = IV 16.5 mg/kg/inj days 3,5,7,9,11, total dose 82.5 mg/kg
[5] = IV 25 mg/kg/inj days 3,5,7,9,11, total dose 125 mg/kg
[6] = IV 38 mg/kg/inj days 3,5,7,9,11, total dose 190 mg/kg

COc1ccc(C[C@H]2NC(=O)/C=C/C[C@@H]([C@H](C)[C@@H](OC(=O)CN)[C@@H](Cl)c3ccccc3)OC(=O)[C@H](CC(C)(C)C)OC(=O)[C@H](C)CNC2=O)cc1Cl [Cryptophycin 309, Cryptophycin-309]
% T/C MASS (HUMAN COLON ADEN[…]-116; [4]): 0%
ACTIVITY RATING (HUMAN COLON ADEN[…]-116; [4]): +++ (2.0-2.8)
DRUG DEATHS (HUMAN COLON ADEN[…]-116; [4]): 0/5
GROWTH DELAY (HUMAN COLON ADEN[…]-116; [4]): 22 days
LOG KILL (HUMAN COLON ADEN[…]-116; [4]): 2.65
MEDIAN TUMOR WEIGHT (HUMAN COLON ADEN[…]-116; [4]): 0 mg
% T/C MASS (HUMAN COLON ADEN[…]-116; [5]): 0%
ACTIVITY RATING (HUMAN COLON ADEN[…]-116; [5]): ++++ (>2.8)
DRUG DEATHS (HUMAN COLON ADEN[…]-116; [5]): 0/5
GROWTH DELAY (HUMAN COLON ADEN[…]-116; [5]): 29.5 days
LOG KILL (HUMAN COLON ADEN[…]-116; [5]): 3.6
MEDIAN TUMOR WEIGHT (HUMAN COLON ADEN[…]-116; [5]): 0 mg
% T/C MASS (HUMAN COLON ADEN[…]-116; [6]): 0%
ACTIVITY RATING (HUMAN COLON ADEN[…]-116; [6]): ++++ (>2.8)
DRUG DEATHS (HUMAN COLON ADEN[…]-116; [6]): 0/5
GROWTH DELAY (HUMAN COLON ADEN[…]-116; [6]): 34 days
LOG KILL (HUMAN COLON ADEN[…]-116; [6]): 4.1
MEDIAN TUMOR WEIGHT (HUMAN COLON ADEN[…]-116; [6]): 0 mg
toxicity [1]: lower toxicity than other cryptophycins
% T/C MASS [2]: 0%
ACTIVITY RATING [2]: +++ (2.0-2.8)
DRUG DEATHS [2]: 0/6
GROWTH DELAY [2]: 20.1 days
LOG KILL [2]: 2.4
MEDIAN TUMOR WEIGHT [2]: 0 mg
% T/C MASS [3]: 0%
ACTIVITY RATING [3]: ++++ (>2.8)
DRUG DEATHS [3]: 0/5
GROWTH DELAY [3]: 11 days
LOG KILL [3]: 3.0
MEDIAN TUMOR WEIGHT [3]: 0 mg
